Measured values published in the kinase profiling compilation of Christmann-Franck et al. (2016).

What was measured:
Assay in all cases: radiometric filter-binding kinase assay, Kinase HotSpot
Details in all cases: compound 0.5 µM; ATP 10 µM
[1] = target: CSF1R (human) (UniProt P07333)
[2] = target: GRK7 (human) (UniProt Q8WTQ7)
[3] = target: MAP4K5 (human) (UniProt Q9Y4K4)
[4] = target: MUSK (human) (UniProt O15146)
[5] = target: EPHA5 (human) (UniProt P54756)
[6] = target: CDK3 CCNE1 (human) (UniProt Q00526+P24864)
[7] = target: MAP3K5 (human) (UniProt Q99683)
Chain of MAP3K5 (human) (Q99683 whole entry, looked up): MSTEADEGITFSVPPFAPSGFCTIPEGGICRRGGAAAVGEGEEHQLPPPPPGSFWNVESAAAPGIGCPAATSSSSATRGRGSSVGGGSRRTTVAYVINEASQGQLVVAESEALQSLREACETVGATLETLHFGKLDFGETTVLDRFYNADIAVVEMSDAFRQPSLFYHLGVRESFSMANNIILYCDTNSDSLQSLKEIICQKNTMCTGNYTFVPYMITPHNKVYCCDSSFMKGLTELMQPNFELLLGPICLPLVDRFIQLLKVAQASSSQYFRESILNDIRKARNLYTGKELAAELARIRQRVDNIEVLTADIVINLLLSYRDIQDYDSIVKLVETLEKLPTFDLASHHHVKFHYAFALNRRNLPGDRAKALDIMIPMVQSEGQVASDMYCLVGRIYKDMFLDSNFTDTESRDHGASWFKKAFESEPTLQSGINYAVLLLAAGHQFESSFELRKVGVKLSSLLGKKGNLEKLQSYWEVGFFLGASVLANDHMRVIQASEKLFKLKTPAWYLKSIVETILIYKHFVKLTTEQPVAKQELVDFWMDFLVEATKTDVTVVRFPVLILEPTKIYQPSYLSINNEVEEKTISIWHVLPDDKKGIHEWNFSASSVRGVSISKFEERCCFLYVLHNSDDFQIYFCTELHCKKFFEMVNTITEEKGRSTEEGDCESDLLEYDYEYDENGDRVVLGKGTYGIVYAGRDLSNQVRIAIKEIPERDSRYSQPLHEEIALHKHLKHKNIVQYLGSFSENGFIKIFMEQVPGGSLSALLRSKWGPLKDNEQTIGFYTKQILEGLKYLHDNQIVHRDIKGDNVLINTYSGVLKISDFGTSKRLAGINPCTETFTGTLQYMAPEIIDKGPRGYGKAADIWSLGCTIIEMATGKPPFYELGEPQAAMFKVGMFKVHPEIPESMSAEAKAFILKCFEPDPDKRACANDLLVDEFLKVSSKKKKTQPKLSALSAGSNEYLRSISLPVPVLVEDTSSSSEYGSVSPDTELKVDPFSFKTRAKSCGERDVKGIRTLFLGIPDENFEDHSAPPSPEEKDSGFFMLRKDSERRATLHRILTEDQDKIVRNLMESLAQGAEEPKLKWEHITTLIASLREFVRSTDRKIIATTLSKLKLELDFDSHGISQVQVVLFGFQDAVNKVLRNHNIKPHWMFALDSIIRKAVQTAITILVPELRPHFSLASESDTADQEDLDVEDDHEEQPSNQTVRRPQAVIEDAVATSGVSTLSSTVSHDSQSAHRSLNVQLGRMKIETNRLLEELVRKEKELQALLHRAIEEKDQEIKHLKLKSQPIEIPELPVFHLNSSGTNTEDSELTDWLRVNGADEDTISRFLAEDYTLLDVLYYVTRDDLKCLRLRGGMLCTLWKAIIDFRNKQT

[8] = target: MAP3K10 (human) (UniProt Q02779)
Chain of MAP3K10 (human) (Q02779 whole entry, looked up): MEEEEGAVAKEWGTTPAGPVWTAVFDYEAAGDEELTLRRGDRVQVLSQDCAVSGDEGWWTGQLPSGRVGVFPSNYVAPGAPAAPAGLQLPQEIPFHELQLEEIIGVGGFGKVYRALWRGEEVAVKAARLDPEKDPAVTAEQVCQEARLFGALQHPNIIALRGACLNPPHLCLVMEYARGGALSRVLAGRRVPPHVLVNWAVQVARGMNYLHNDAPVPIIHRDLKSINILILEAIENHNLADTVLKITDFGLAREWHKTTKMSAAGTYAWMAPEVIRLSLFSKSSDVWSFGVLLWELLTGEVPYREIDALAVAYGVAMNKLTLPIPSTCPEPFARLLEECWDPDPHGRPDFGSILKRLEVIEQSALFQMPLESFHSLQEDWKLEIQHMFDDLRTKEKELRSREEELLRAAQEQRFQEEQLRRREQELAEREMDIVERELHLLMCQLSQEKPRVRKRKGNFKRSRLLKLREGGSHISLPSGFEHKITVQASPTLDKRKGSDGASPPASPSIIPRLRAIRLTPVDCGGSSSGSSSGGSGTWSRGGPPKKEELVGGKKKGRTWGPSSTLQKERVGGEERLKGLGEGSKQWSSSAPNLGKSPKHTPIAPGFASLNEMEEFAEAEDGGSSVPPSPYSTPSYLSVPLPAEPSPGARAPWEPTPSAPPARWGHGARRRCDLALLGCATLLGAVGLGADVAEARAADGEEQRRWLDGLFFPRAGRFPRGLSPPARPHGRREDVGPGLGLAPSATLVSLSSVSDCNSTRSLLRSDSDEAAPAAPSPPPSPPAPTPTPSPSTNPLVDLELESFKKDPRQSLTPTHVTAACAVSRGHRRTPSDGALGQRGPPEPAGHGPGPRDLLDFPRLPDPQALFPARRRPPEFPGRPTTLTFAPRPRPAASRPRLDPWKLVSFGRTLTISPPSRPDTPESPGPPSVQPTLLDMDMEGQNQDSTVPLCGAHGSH

[9] = target: CAMK1G (human) (UniProt Q96NX5)
[10] = target: EPHB3 (human) (UniProt P54753)
Chain of EPHB3 (human) (P54753 whole entry, looked up): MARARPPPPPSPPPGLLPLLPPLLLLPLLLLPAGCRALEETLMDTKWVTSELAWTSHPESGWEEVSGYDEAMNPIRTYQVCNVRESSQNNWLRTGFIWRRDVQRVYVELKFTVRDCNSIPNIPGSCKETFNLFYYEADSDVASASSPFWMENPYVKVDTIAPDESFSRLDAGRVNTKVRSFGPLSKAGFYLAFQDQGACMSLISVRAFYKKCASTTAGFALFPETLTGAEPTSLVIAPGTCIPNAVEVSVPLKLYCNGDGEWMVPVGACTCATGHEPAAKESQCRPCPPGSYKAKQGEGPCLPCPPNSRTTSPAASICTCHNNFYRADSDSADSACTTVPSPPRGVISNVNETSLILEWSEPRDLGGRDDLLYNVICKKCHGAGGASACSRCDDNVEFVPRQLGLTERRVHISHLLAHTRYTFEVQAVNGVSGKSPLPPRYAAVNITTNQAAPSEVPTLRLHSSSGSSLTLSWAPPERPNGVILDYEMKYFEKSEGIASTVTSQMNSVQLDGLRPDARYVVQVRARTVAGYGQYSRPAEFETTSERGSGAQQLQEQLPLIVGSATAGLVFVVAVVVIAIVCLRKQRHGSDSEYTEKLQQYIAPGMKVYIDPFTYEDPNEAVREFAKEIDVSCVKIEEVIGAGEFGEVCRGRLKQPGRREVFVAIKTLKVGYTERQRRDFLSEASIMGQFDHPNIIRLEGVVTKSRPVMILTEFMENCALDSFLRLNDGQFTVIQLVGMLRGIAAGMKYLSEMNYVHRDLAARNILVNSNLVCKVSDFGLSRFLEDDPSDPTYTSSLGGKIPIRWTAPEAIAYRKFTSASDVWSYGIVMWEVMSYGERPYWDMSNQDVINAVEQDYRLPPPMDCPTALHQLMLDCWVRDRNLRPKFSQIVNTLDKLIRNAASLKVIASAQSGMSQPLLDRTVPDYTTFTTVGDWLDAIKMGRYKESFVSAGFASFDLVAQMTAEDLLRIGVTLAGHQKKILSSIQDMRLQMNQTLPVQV

[11] = target: EPHB1 (human) (UniProt P54762)
[12] = target: MAPK8 (human) (UniProt P45983)
[13] = target: NEK6 (human) (UniProt Q9HC98)
[14] = target: RPS6KA2 KD1 KD2 (human) (UniProt Q15349)
[15] = target: CDK9 CCNT1 (human) (UniProt P50750+O60563)
[16] = target: PLK2 (human) (UniProt Q9NYY3)
[17] = target: CDK5 CDK5R1 p25 (human) (UniProt Q00535+Q15078)
[18] = target: MARK2 (human) (UniProt Q7KZI7)
[19] = target: HIPK2 (human) (UniProt Q9H2X6)
[20] = target: NUAK1 (human) (UniProt O60285)
Chain of NUAK1 (human) (O60285 whole entry, looked up): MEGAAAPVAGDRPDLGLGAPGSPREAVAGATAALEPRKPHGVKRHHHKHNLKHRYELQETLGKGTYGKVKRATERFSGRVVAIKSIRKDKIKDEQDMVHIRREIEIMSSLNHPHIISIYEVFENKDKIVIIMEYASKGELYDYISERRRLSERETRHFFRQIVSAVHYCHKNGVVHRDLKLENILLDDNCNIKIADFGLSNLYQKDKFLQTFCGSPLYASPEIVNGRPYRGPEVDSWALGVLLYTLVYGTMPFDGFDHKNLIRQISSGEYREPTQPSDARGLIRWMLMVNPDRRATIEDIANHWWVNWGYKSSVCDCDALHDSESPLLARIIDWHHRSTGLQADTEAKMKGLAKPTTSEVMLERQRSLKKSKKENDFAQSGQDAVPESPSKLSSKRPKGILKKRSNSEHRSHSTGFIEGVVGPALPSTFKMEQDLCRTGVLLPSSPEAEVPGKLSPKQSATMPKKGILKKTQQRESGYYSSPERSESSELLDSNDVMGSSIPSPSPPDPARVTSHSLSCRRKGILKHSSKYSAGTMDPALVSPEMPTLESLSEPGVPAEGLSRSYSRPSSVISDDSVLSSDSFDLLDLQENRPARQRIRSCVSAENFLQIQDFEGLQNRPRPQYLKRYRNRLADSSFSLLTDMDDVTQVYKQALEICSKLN

[21] = target: MET (human) (UniProt P08581)
[22] = target: SRPK1 (human) (UniProt Q96SB4)
[23] = target: MAP3K3 (human) (UniProt Q99759)
[24] = target: ROCK2 (human) (UniProt O75116)
[25] = target: RPS6KB1 (human) (UniProt P23443)
[26] = target: MINK1 (human) (UniProt Q8N4C8)
[27] = target: RPS6KA6 KD1 KD2 (human) (UniProt Q9UK32)
[28] = target: GSK3A (human) (UniProt P49840)
[29] = target: AKT2 (human) (UniProt P31751)
[30] = target: NLK (human) (UniProt Q9UBE8)
[31] = target: PRKCD (human) (UniProt Q05655)
[32] = target: PRKG2 (human) (UniProt Q13237)
[33] = target: FGFR3 (human) (UniProt P22607)
[34] = target: ROS1 (human) (UniProt P08922)
[35] = target: PKN1 (human) (UniProt Q16512)
[36] = target: TSSK2 (human) (UniProt Q96PF2)
[37] = target: CDK7 CCNH MNAT1 (human) (UniProt P50613+P51948+P51946)
[38] = target: AKT3 (human) (UniProt Q9Y243)
[39] = target: TEC (human) (UniProt P42680)
[40] = target: GRK6 (human) (UniProt P43250)
[41] = target: MAP3K11 (human) (UniProt Q16584)
Chain of MAP3K11 (human) (Q16584 whole entry, looked up): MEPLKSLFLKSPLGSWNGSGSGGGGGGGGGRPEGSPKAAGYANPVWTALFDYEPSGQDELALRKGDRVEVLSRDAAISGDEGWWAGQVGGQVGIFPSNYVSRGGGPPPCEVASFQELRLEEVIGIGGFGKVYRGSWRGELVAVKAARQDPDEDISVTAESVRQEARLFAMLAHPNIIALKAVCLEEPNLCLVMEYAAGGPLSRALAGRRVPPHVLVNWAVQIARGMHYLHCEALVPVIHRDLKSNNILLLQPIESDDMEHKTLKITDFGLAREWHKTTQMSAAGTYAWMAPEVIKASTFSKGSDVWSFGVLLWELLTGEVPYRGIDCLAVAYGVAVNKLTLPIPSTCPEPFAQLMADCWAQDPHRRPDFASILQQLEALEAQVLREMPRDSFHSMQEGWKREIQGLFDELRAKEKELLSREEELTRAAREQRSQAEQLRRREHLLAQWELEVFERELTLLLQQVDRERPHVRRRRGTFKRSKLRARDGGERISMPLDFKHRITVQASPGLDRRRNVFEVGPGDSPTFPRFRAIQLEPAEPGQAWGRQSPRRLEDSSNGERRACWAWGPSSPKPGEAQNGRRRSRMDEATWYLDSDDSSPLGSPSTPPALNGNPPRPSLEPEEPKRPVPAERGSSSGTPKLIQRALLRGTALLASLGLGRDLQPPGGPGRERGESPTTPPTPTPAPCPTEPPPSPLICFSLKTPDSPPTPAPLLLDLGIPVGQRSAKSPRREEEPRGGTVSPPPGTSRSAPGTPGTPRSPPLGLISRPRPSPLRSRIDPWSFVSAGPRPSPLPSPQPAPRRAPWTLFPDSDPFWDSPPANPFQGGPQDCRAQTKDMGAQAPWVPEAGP

For `CCCNC(=O)Nc1ccc(Oc2ncnc3cc(OC)c(OC)cc23)cc1Cl`, the residual activity [1] was 51.1%, the residual activity [2] was 94.7% and the residual activity [3] was 54.6%. The residual activity [4] was 101%, the residual activity [5] was 81.8% and the residual activity [6] was 94%. It also gave a residual activity [7] of 102%, a residual activity [8] of 103% and a residual activity [9] of 103%. It also gave a residual activity [10] of 93.7%, a residual activity [11] of 95.5% and a residual activity [12] of 107%. It also gave a residual activity [13] of 105%, a residual activity [14] of 95.7% and a residual activity [15] of 98%. The residual activity [16] was 104%, the residual activity [17] was 95.7% and the residual activity [18] was 96.2%. It also gave a residual activity [19] of 97.9%, a residual activity [20] of 92.3% and a residual activity [21] of 73.6%. It also gave a residual activity [22] of 102%, a residual activity [23] of 95.3% and a residual activity [24] of 97.7%. It also gave a residual activity [25] of 90.6%, a residual activity [26] of 90.1% and a residual activity [27] of 102%. The residual activity [28] was 98.8%, the residual activity [29] was 89.7% and the residual activity [30] was 90.7%. For the same compound, the residual activity [31] was 90.1%, the residual activity [32] was 97% and the residual activity [33] was 84.5%. It also gave a residual activity [34] of 97.6%, a residual activity [35] of 99.1% and a residual activity [36] of 98.7%. It also gave a residual activity [37] of 119%, a residual activity [38] of 88.9% and a residual activity [39] of 119%. For the same compound, the residual activity [40] was 95% and the residual activity [41] was 89.2%.
Work on `COc1ccc(-c2cnc3c(-c4ccsc4)cnn3c2)cc1` yielded a residual activity [1] of 53.6%, a residual activity [2] of 99.9% and a residual activity [3] of 60.3%. For the same compound, the residual activity [4] was 74.9%, the residual activity [5] was 89.1% and the residual activity [6] was 84.9%. The residual activity [7] was 105%, the residual activity [8] was 94.2% and the residual activity [9] was 100%. The residual activity [10] was 99.4%, the residual activity [11] was 83.1% and the residual activity [12] was 100%. For the same compound, the residual activity [13] was 99.3%, the residual activity [14] was 87.5% and the residual activity [15] was 73.8%. It also gave a residual activity [16] of 100%, a residual activity [17] of 73% and a residual activity [18] of 82.1%. It also gave a residual activity [19] of 91.2%, a residual activity [20] of 77.9% and a residual activity [21] of 86.3%. It also gave a residual activity [22] of 101%, a residual activity [23] of 99.4% and a residual activity [24] of 90.4%. The residual activity [25] was 92.1%, the residual activity [26] was 63.7% and the residual activity [27] was 90.7%. It also gave a residual activity [28] of 92.5%, a residual activity [29] of 93.3% and a residual activity [30] of 74.5%. It also gave a residual activity [31] of 98.9%, a residual activity [32] of 92% and a residual activity [33] of 81.5%. The residual activity [34] was 98.8%, the residual activity [35] was 93.1% and the residual activity [36] was 99%. It also gave a residual activity [37] of 100%, a residual activity [38] of 95.4% and a residual activity [39] of 124%. The residual activity [40] was 99.9% and the residual activity [41] was 51.9%.
`O=c1cc(-c2cccc3c2Sc2ccccc2S3)oc(N2CCOCC2)c1` was tested, and the residual activity [1] was 91.9%, the residual activity [2] was 99.2% and the residual activity [3] was 93.6%. It also gave a residual activity [4] of 89.1%, a residual activity [5] of 114% and a residual activity [6] of 101%. It also gave a residual activity [7] of 104%, a residual activity [8] of 95.9% and a residual activity [9] of 99.4%. For the same compound, the residual activity [10] was 105%, the residual activity [11] was 110% and the residual activity [12] was 84%. For the same compound, the residual activity [13] was 103%, the residual activity [14] was 81.4% and the residual activity [15] was 100%. It also gave a residual activity [16] of 84.6%, a residual activity [17] of 96.8% and a residual activity [18] of 86.3%. It also gave a residual activity [19] of 105%, a residual activity [20] of 93.1% and a residual activity [21] of 107%. The residual activity [22] was 105%, the residual activity [23] was 137% and the residual activity [24] was 109%. The residual activity [25] was 91.5%, the residual activity [26] was 100% and the residual activity [27] was 98.2%. It also gave a residual activity [28] of 86.7%, a residual activity [29] of 96% and a residual activity [30] of 108%. It also gave a residual activity [31] of 91.9%, a residual activity [32] of 92.2% and a residual activity [33] of 94.7%. For the same compound, the residual activity [34] was 106%, the residual activity [35] was 94.4% and the residual activity [36] was 97.7%. The residual activity [37] was 96.5%, the residual activity [38] was 109% and the residual activity [39] was 198%. The residual activity [40] was 83% and the residual activity [41] was 98.6%.
With `O=C1Nc2cc(Br)ccc2/C1=C1/Nc2ccccc2/C1=N\O` the residual activity [1] was 74.4%, the residual activity [2] was 96.7% and the residual activity [3] was 36.5%. It also gave a residual activity [4] of 84.5%, a residual activity [5] of 70.4% and a residual activity [6] of 25.2%. For the same compound, the residual activity [7] was 91.6%, the residual activity [8] was 92.1% and the residual activity [9] was 96%. The residual activity [10] was 103%, the residual activity [11] was 72.3% and the residual activity [12] was 98.7%. For the same compound, the residual activity [13] was 99.9%, the residual activity [14] was 33.7% and the residual activity [15] was 68.2%. It also gave a residual activity [16] of 98.9%, a residual activity [17] of 20.4% and a residual activity [18] of 61.8%. The residual activity [19] was 96.2%, the residual activity [20] was 15.7% and the residual activity [21] was 70%. For the same compound, the residual activity [22] was 94.9%, the residual activity [23] was 107% and the residual activity [24] was 92.1%. For the same compound, the residual activity [25] was 79.6%, the residual activity [26] was 47.8% and the residual activity [27] was 43.1%. The residual activity [28] was 3.6%, the residual activity [29] was 101% and the residual activity [30] was 101%. It also gave a residual activity [31] of 103%, a residual activity [32] of 69.1% and a residual activity [33] of 54.6%. It also gave a residual activity [34] of 82%, a residual activity [35] of 82.2% and a residual activity [36] of 101%. It also gave a residual activity [37] of 79.1%, a residual activity [38] of 89.4% and a residual activity [39] of 104%. It also gave a residual activity [40] of 79.9% and a residual activity [41] of 16%.
